US20140206559A1, “ASSAY FOR […] OF TUMOR CELLS” (PRESIDENT AND FELLOWS OF HARVARD COLLEGE, priority 2011, published 2014)

System: invasive cells (PC-3 and DU-154)
Experiment: three-dimensional in vitro invasion assay (CiGiP, paper-Matrigel layers, calcein stain)
Type: cell-based
Conditions: PC-3 and DU-154 prostate cancer cells in stacked paper-Matrigel layers; 1-5 days culture of stacked layers; inhibitor of actin-based motility present
Procedure: The following invasive potential of the cell lines were assessed using the 3D in vitro assay as disclosed herein: Breast cancer cells; triple negative highly invasive cell line MDA-MB-231. Prostate cancer cells: highly invasive PC-3 and DU-154 isolate from bone and brain metastases, weakly invasive LNCaP and CWR-22 lines. Control cells included normal prostate epithelial cells (RWPE-1) and fibroblasts (HIN 3T3) as negative controls.
Permeation of the suspension of cells in Matrigel into paper yielded thin (200 μm) layers of Matrigel with cells trapped within [Derda et al, PNAS 2009; Derda et al, PLoS submitted]. […] The inventors also assessed other combinations of different numbers of seed-substrates and different numbers of receiving-substrates.
After additional 1-5 days of culture of the 3-D assay of stacked layers, the layers were separated by peeling apart and the amount of cells (e.g., the number, density or quantity) of cells in one or more receiving layer was measured, and optionally the amount of the amount of cells (e.g., the number, density or quantity) of cells in the seed-substrate layer. […]
To measure the quantity of cells in each layer, the layers were incubated in solution of calcein which stains viable cells and the layers were imaged using fluorescent scanner at 100 micron resolution. […]

Structure (SMILES): C=C1[C@@H](C)[C@H]2[C@H](Cc3ccccc3)NC(=O)[C@]23[C@H](OC(C)=O)/C=C/[C@@](C)(O)C(=O)[C@@H](C)C/C=C/[C@H]3[C@@H]1O [cytoclasin D]
- invasion of the upper "receiver-substrate" layer by invasive cells: blocked
